In US8324248B2, “Piperidine derivatives as NK3 receptor antagonists” (Hoffmann-La Roche Inc., priority 2009, dated 2012):

molecular target: T1, recombinant human NK3 receptor (Homo sapiens, UniProt P29371); assay: [3H]SR142801 competition binding assay, hNK3 receptor binding; details: [3H]SR142801 displacement; membranes from HEK293 cells transiently expressing recombinant human NK3 receptor; Ki by Cheng-Prussoff from IC50
T1 construct: expressed in transfected cells; host or cells: HEK293 cells (transient expression), membranes
T1 sequence (P29371 1-465): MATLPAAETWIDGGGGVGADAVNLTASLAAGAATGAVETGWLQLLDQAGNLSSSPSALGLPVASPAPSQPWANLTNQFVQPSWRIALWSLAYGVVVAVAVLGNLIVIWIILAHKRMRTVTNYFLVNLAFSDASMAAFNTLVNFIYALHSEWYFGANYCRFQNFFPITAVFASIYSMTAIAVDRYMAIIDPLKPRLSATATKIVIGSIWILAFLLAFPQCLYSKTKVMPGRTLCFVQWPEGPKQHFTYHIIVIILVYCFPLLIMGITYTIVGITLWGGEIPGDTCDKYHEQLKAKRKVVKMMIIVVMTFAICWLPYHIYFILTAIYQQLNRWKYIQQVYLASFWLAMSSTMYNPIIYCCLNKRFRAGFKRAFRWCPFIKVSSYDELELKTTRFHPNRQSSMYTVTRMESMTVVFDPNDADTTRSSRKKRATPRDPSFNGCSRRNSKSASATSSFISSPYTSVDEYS
Method: The compounds were investigated in accordance with the tests given hereinafter. [^3H]SR142801 competition binding assay hNK3 receptor binding experiment were performed using [^3H]SR142801 (Catalog No. TRK1035, specific activity: 74.0 Ci/mmol, Amersham, GE Healthcare UK limited, Buckinghamshire, UK) and membrane isolated from HEK293 cells transiently expressing recombinant human NK3 receptor. After thawing, the membrane homogenates were centrifuged at 48,000×g for 10 min at 4° C., the pellets were resuspended in the 50 mM Tris-HCl, 4 mM MnCl2, 1 μM phosphoramidon, 0.1% BSA binding buffer at pH 7.4 to a final assay concentration of 5 μg protein/well. For inhibition experiments, membranes were incubated with [^3H]SR142801 at a concentration equal to KD value of radioligand and 10 concentrations of the inhibitory compound (0.0003-10 μM) (in a total reaction volume of 500 μl) for 75 min at room temperature (RT). At the end of the incubation, membranes were filtered onto unitfilter (96-well white microplate with bonded GF/C filter preincubated 1 h in 0.3% PEI+0.3% BSA, Packard BioScience, Meriden, Conn.) with a Filtermate 196 harvester (Packard BioScience) and washed 4 times with ice-cold 50 mM Tris-HCl, pH 7.4 buffer. Nonspecific binding was measured in the presence of 10 μM SB222200 for both radioligands. The radioactivity on the filter was counted (5 min) on a Packard Top-count microplate scintillation counter with quenching correction after addition of 45 μl of microscint 40 (Can berra Packard S. A., Zürich, Switzerland) and shaking for 1 h. Inhibition curves were fitted according to the Hill equation: y=100/(1+(x/IC50)^nH), where nH=slope factor using Excel-fit 4 software (Microsoft). IC50 values were derived from the inhibition curve and the affinity constant (Ki) values were calculated using the Cheng-Prussoff equation Ki=IC50/(1+[L]/KD) where [L] is the concentration of radioligand and KD is its dissociation constant at the receptor, derived from the saturation isotherm. All experiments were performed in duplicate and the mean±standard error (SEM) of the individual Ki values was calculated.

Point of comparison: `C[C@H](Oc1cccc(F)c1)[C@H]1CCN(C(=O)C2CCN(c3ccc(C#N)cn3)CC2)C[C@@H]1c1ccc(Cl)cc1` [Example 56, 4-{(3S,4S)-3-(4-Chloro-phenyl)-4-[(S)-1-(3-fluoro-phenoxy)-ethyl]-piperidine-1-carbonyl}-3,4,5,6-tetrahydro-2H-[1,2′]bipyridinyl-5′-carbonitrile], Ki 3.8 nM. Against it:
- C[C@H](Oc1ccc(C#N)cn1)[C@H]1CCN(C(=O)C2CCN(c3ccc(C#N)cn3)CC2)C[C@@H]1c1ccc(Cl)cc1 [Example 27, 4-{(3S,4S)-3-(4-Chloro-phenyl)-4-[(S)-1-(5-cyano-pyridin-2-yloxy)-ethyl]-piperidine-1-carbonyl}-3,4,5,6-tetrahydro-2H-[1,2′]bipyridinyl-5′-carbonitrile] — 13-fold lower, 0.3 nM
- C[C@H](Oc1ccc(C#N)cn1)[C@H]1CCN(C(=O)N2CCN(S(C)(=O)=O)CC2)C[C@@H]1c1ccc(Cl)cc1 [Example 28, 6-{(S)-1-[(3S,4S)-3-(4-Chloro-phenyl)-1-(4-methanesulfonyl-piperazine-1-carbonyl)-piperidin-4-yl]-ethoxy}-nicotinonitrile] — within 1.5-fold, 3 nM
- C[C@H](Oc1ccc(C#N)cn1)[C@H]1CCN(C(=O)c2ccc(-c3ccc(F)cc3)cc2)C[C@@H]1c1ccc(Cl)cc1 [Example 29, 6-{(8)-1-[(3S,4S)-3-(4-Chloro-phenyl)-1-(4′-fluoro-biphenyl-4-carbonyl)-piperidin-4-yl]-ethoxy}-nicotinonitrile] — 2-fold higher, 7.7 nM
- N#Cc1ccc(N2CCC(C(=O)N3CC[C@H](COc4ccc(Cl)cn4)[C@@H](c4ccccc4)C3)CC2)nc1 [Example 47, 4-[(3S,4S)-4-(5-Chloro-pyridin-2-yloxymethyl)-3-phenyl-piperidine-1-carbonyl]-3,4,5,6-tetrahydro-2H-[1,2′]bipyridinyl-5′-carbonitrile] — 2.6-fold higher, 9.9 nM
- C[C@H](Oc1ccc(Cl)c(Cl)c1)[C@H]1CCN(C(=O)C2CCN(c3ccc(C#N)cn3)CC2)C[C@@H]1c1ccc(Cl)cc1 [Example 49, 4-{(3S,4S)-3-(4-Chloro-phenyl)-4-[(S)-1-(3,4-dichloro-phenoxy)-ethyl]-piperidine-1-carbonyl}-3,4,5,6-tetrahydro-2H-[1,2′]bipyridinyl-5′-carbonitrile] — within 1.5-fold, 5.5 nM
- C[C@H](Oc1ccc(C(F)(F)F)cc1)[C@H]1CCN(C(=O)C2CCN(c3ccc(C#N)cn3)CC2)C[C@@H]1c1ccc(Cl)cc1 [Example 50, 4-{(3S,4S)-3-(4-Chloro-phenyl)-4-[(S)-1-(4-trifluoromethyl-phenoxy)-ethyl]-piperidine-1-carbonyl}-3,4,5,6-tetrahydro-2H-[1,2′]bipyridinyl-5′-carbonitrile] — 2.9-fold lower, 1.3 nM
- C[C@H](Oc1ccc(C#N)cc1)[C@H]1CCN(C(=O)C2CCN(c3ccc(C#N)cn3)CC2)C[C@@H]1c1ccc(Cl)cc1 [Example 51, 4-{(3S,4S)-3-(4-Chloro-phenyl)-4-[(S)-1-(4-cyano-phenoxy)-ethyl]-piperidine-1-carbonyl}-3,4,5,6-tetrahydro-2H-[1,2′]bipyridinyl-5′-carbonitrile] — 2-fold lower, 1.9 nM
- C[C@H](Oc1ccc(F)cn1)[C@H]1CCN(C(=O)C2CCN(c3ccc(C#N)cn3)CC2)C[C@@H]1c1ccc(Cl)cc1 [Example 52, 4-{(3S,4S)-3-(4-Chloro-phenyl)-4-[(S)-1-(5-fluoro-pyridin-2-yloxy)-ethyl]-piperidine-1-carbonyl}-3,4,5,6-tetrahydro-2H-[1,2′]bipyridinyl-5′-carbonitrile] — 6.3-fold lower, 0.6 nM
- C[C@H](Oc1ccc(F)cc1)[C@H]1CCN(C(=O)C2CCN(c3ccc(C#N)cn3)CC2)C[C@@H]1c1ccc(Cl)cc1 [Example 53, 4-{(3S,4S)-3-(4-Chloro-phenyl)-4-[(S)-1-(4-fluoro-phenoxy)-ethyl]-piperidine-1-carbonyl}-3,4,5,6-tetrahydro-2H-[1,2′]bipyridinyl-5′-carbonitrile] — 6.3-fold lower, 0.6 nM
- C[C@H](Oc1ccc(F)c(F)c1)[C@H]1CCN(C(=O)C2CCN(c3ccc(C#N)cn3)CC2)C[C@@H]1c1ccc(Cl)cc1 [Example 54, 4-{(3S,4S)-3-(4-Chloro-phenyl)-4-[(S)-1-(3,4-difluoro-phenoxy)-ethyl]-piperidine-1-carbonyl}-3,4,5,6-tetrahydro-2H-[1,2′]bipyridinyl-5′-carbonitrile] — 2.2-fold lower, 1.7 nM
- C[C@H](Oc1ccc(Cl)cc1)[C@H]1CCN(C(=O)C2CCN(c3ccc(C#N)cn3)CC2)C[C@@H]1c1ccc(Cl)cc1 [Example 55, 4-[(3S,4S)-4-[(S)-1-(4-Chloro-phenoxy)-ethyl]-3-(4-chloro-phenyl)-piperidine-1-carbonyl]-3,4,5,6-tetrahydro-2H-[1,2′]bipyridinyl-5′-carbonitrile] — 4.2-fold lower, 0.9 nM
- Cc1ccc(O[C@@H](C)[C@H]2CCN(C(=O)C3CCN(c4ccc(C#N)cn4)CC3)C[C@@H]2c2ccc(Cl)cc2)cc1 [Example 57, 4-[(3S,4S)-3-(4-Chloro-phenyl)-4-((S)-1-p-tolyloxy-ethyl)-piperidine-1-carbonyl]-3,4,5,6-tetrahydro-2H-[1,2′]bipyridinyl-5′-carbonitrile] — 2.7-fold lower, 1.4 nM
- Cc1ccc(O[C@@H](C)[C@H]2CCN(C(=O)C3CCN(c4ccc(C#N)cn4)CC3)C[C@@H]2c2ccc(Cl)cc2)nc1 [Example 58, 4-{(3S,4S)-3-(4-Chloro-phenyl)-4-[(S)-1-(5-methyl-pyridin-2-yloxy)-ethyl]piperidine-1-carbonyl}-3,4,5,6-tetrahydro-2H-[1,2′]bipyridinyl-5′-carbonitrile] — 1.9-fold lower, 2 nM
- C[C@H](Oc1ncc(F)cn1)[C@H]1CCN(C(=O)C2CCN(c3ccc(C#N)cn3)CC2)C[C@@H]1c1ccc(Cl)cc1 [Example 61, 4-{(3S,4S)-3-(4-Chloro-phenyl)-4-[(S)-1-(5-fluoro-pyrimidin-2-yloxy)-ethyl]-piperidine-1-carbonyl}-3,4,5,6-tetrahydro-2H-[1,2′]bipyridinyl-5′-carbonitrile] — 2.5-fold lower, 1.5 nM
- C[C@H](Oc1ccc(Cl)cn1)[C@H]1CCN(C(=O)C2CCN(c3ccc(C#N)cn3)CC2)C[C@@H]1c1ccc(F)c(F)c1 [Example 62, 4-[(3S,4S)-4-[(S)-1-(5-Chloro-pyridin-2-yloxy)-ethyl]-3-(3,4-difluoro-phenyl)-piperidine-1-carbonyl]-3,4,5,6-tetrahydro-2H-[1,2′]bipyridinyl-5′-carbonitrile] — 19-fold lower, 0.2 nM
- C[C@H](Oc1ccc(Cl)cn1)[C@H]1CCN(C(=O)C2CCN(C(=O)C3(C)CC3)CC2)C[C@@H]1c1ccc(F)c(F)c1 [Example 63, {4-[(3S,4S)-4-[(S)-1-(5-Chloro-pyridin-2-yloxy)-ethyl]-3-(3,4-difluoro-phenyl)-piperidine-1-carbonyl]piperidin-1-yl}-(1-methyl-cyclopropyl)-methanone] — within 1.5-fold, 3.5 nM
- C[C@H](Oc1ccc(C#N)cn1)[C@H]1CCN(C(=O)C2CCN(c3ccc(C#N)cn3)CC2)C[C@@H]1c1ccc(F)c(F)c1 [Example 65, 4-[(3S,4S)-4-[(S)-1-(5-Cyano-pyridin-2-yloxy)-ethyl]-3-(3,4-difluoro-phenyl)-piperidine-1-carbonyl]-3,4,5,6-tetrahydro-2H-[1,2′]bipyridinyl-5′-carbonitrile] — 9.5-fold lower, 0.4 nM
- C[C@H](Oc1ccc(C#N)cn1)[C@H]1CCN(C(=O)C2CCN(C(=O)C3(C)CC3)CC2)C[C@@H]1c1ccc(F)c(F)c1 [Example 66, 6-((S)-1-{(3S,4S)-3-(3,4-Difluoro-phenyl)-1-[1-(1-methyl-cyclopropanecarbonyl)-piperidine-4-carbonyl]-piperidin-4-yl}-ethoxy)-nicotinonitrile] — within 1.5-fold, 4.6 nM

tested on: not given; assay: not given; details: phase II trial; altered behavior, delusion, hallucinations, extreme emotions, excited motor activity, incoherent speech; cited from earlier work

In the case of `CC(=O)N(C)C1(c2ccccc2)CCN(CCC[C@]2(c3ccc(Cl)c(Cl)c3)CCCN(C(=O)c3ccccc3)C2)CC1` [SR 142,801, Osanetant], the “activity on positive symptoms of schizophrenia” value is listed as “active”.

same assay, conditions: phase II trial; depression, anhedonia, social isolation or memory and attention deficits; cited from earlier work

In the case of `CC(=O)N(C)C1(c2ccccc2)CCN(CCC[C@]2(c3ccc(Cl)c(Cl)c3)CCCN(C(=O)c3ccccc3)C2)CC1` [SR 142,801, Osanetant], the “activity in the treatment of negative symptoms” value is listed as “inactive”.
